According to ChEMBL document CHEMBL4304809 (ACS Med Chem Lett, 2019):
In brackets after ≈: the same amount, converted by molar mass. Activity calls are given as the source filed them. No cut-off for these calls is given here.

Columns and labels:
[1] = target: Mitogen-activated protein kinase kinase kinase 14 (Homo sapiens, UniProt Q99558); test: Inhibition of NIK (unknown origin) using ATP as substrate by transcreener ADP assay based fluorescence correlation spectroscopic analysis; type: single protein
[2] = target: T1, Serine/threonine-protein kinase D1 (Homo sapiens, UniProt Q15139); test: Inhibition of full length GST-tagged human PRKD1 expressed in Baculovirus expression system using ATP as substrate incubated for 1 to 2 hrs by transcreener ADP assay based fluorescence correlation spectroscopic analysis
T1 sequence (Q15139 whole entry): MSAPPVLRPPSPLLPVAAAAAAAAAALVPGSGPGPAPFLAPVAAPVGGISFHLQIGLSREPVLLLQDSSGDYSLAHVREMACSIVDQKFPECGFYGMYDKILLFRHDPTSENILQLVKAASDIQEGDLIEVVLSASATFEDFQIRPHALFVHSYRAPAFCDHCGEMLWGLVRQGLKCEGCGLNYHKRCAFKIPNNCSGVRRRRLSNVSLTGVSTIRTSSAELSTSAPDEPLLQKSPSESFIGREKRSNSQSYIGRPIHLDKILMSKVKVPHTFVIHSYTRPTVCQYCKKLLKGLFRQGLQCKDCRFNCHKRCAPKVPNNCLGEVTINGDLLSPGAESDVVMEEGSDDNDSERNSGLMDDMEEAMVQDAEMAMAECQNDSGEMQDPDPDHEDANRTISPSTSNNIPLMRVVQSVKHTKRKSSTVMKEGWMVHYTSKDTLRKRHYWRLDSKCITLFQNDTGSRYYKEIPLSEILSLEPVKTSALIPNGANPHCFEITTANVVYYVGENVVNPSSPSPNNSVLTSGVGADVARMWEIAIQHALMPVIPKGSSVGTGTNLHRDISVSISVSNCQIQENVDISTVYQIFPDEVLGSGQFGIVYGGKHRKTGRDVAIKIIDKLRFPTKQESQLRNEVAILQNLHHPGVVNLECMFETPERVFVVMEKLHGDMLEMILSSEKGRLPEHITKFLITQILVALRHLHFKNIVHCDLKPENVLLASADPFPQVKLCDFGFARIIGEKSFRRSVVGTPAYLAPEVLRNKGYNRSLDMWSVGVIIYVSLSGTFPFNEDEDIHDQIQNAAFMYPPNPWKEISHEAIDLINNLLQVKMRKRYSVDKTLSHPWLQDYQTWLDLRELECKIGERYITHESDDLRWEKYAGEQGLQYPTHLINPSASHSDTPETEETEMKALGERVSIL

[3] = target: Misshapen-like kinase 1 (Homo sapiens) (UniProt Q8N4C8); test: Inhibition of recombinant GST-tagged human MINK1 catalytic domain (1 to 320 residues) expressed in Baculovirus expression system at 0.1 uM using Fluorescein-PKC as substrate incubated for 1 hr by TR-FRET assay relative to control
[4] = target: Tyrosine-protein kinase JAK1 (Homo sapiens) (UniProt P23458); test: Inhibition of recombinant GST-tagged human JAK1 catalytic domain (866 to 1154 residues) expressed in Baculovirus expression system at 0.1 uM using GFP-STAT1 as substrate incubated for 1 hr by TR-FRET assay relative to control
[5] = target: RAC-alpha serine/threonine-protein kinase (Homo sapiens) (UniProt P31749); test: Inhibition of full length His-tagged recombinant human AKT1 expressed in Baculovirus expression system at 0.1 uM using Fluorescein-Crosstide as substrate incubated for 1 hr by TR-FRET assay relative to control
[6] = target: Serine/threonine-protein kinase PAK 4 (Homo sapiens) (UniProt O96013); test: Inhibition of recombinant GST-tagged human PAK4 catalytic domain (295 to 591 residues) expressed in Baculovirus expression system at 0.1 uM using Fluorescein-Crosstide as substrate incubated for 1 hr by TR-FRET assay relative to control
[7] = Lipophilicity, log D of the compound at pH 7.4; type: physicochemical; conditions: buffer
[8] = target: T2, Serine/threonine-protein kinase D1 (Homo sapiens) (UniProt Q15139); test: Inhibition of full length GST-tagged recombinant human PRKD1 expressed in Baculovirus expression system at 0.1 uM using Fluorescein-CREBtide as substrate incubated for 1 hr by TR-FRET assay relative to control
T2 sequence (whole entry): T1 sequence (Q15139 whole entry)

[9] = Kinetic solubility of the compound; type: physicochemical; conditions: read-out: Kinetic_solubility
[10] = target: Mitogen-activated protein kinase kinase kinase kinase 4 (Homo sapiens) (UniProt O95819); test: Inhibition of recombinant GST-tagged human MAP4K4 catalytic domain (1 to 328 residues) expressed in Baculovirus expression system at 0.1 uM using Fluorescein-PKC as substrate incubated for 1 hr by TR-FRET assay relative to control
[11] = target: Aurora kinase B (Homo sapiens) (UniProt Q96GD4); test: Inhibition of full length His-tagged recombinant human AURKB expressed in Baculovirus expression system at 0.1 uM using Fluorescein-PKC as substrate incubated for 1 hr by TR-FRET assay relative to control
Chain of Aurora kinase B (Homo sapiens) (Q96GD4 whole entry): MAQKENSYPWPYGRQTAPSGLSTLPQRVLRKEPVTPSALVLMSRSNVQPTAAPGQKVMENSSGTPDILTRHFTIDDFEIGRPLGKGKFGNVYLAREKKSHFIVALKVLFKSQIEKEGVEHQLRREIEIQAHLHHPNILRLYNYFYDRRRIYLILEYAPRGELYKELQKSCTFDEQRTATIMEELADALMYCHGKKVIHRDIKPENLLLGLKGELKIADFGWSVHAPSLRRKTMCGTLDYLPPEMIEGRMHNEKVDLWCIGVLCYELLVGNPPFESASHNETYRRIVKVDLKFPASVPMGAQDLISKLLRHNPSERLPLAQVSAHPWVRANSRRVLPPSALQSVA

Chain of Mitogen-activated protein kinase kinase kinase 14 (Q99558 whole entry): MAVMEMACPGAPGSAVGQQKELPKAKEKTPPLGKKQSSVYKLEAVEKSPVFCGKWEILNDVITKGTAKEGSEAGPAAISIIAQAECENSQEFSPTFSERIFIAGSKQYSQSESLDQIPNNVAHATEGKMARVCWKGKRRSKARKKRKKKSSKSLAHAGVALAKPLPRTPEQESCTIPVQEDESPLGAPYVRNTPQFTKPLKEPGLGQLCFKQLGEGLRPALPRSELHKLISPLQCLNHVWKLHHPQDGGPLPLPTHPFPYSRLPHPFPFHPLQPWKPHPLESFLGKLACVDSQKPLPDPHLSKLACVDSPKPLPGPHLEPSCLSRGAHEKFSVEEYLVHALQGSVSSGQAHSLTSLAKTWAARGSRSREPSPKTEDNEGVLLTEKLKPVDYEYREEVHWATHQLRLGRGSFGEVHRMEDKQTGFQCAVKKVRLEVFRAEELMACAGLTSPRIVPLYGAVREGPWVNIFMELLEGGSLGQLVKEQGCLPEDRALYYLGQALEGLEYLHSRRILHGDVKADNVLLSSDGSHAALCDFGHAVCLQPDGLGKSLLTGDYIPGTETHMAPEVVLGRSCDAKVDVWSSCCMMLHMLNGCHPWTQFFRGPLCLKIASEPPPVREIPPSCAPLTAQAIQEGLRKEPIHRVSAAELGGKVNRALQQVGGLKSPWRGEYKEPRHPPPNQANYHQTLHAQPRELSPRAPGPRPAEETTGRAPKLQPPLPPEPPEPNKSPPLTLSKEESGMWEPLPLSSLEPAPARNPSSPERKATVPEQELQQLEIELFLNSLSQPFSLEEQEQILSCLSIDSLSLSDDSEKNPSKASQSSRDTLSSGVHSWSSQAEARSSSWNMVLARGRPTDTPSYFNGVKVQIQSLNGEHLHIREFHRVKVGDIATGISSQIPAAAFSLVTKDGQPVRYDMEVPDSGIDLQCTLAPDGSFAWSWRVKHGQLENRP
Chain of Misshapen-like kinase 1 (Homo sapiens) (Q8N4C8 whole entry, looked up, the tested form may be a part): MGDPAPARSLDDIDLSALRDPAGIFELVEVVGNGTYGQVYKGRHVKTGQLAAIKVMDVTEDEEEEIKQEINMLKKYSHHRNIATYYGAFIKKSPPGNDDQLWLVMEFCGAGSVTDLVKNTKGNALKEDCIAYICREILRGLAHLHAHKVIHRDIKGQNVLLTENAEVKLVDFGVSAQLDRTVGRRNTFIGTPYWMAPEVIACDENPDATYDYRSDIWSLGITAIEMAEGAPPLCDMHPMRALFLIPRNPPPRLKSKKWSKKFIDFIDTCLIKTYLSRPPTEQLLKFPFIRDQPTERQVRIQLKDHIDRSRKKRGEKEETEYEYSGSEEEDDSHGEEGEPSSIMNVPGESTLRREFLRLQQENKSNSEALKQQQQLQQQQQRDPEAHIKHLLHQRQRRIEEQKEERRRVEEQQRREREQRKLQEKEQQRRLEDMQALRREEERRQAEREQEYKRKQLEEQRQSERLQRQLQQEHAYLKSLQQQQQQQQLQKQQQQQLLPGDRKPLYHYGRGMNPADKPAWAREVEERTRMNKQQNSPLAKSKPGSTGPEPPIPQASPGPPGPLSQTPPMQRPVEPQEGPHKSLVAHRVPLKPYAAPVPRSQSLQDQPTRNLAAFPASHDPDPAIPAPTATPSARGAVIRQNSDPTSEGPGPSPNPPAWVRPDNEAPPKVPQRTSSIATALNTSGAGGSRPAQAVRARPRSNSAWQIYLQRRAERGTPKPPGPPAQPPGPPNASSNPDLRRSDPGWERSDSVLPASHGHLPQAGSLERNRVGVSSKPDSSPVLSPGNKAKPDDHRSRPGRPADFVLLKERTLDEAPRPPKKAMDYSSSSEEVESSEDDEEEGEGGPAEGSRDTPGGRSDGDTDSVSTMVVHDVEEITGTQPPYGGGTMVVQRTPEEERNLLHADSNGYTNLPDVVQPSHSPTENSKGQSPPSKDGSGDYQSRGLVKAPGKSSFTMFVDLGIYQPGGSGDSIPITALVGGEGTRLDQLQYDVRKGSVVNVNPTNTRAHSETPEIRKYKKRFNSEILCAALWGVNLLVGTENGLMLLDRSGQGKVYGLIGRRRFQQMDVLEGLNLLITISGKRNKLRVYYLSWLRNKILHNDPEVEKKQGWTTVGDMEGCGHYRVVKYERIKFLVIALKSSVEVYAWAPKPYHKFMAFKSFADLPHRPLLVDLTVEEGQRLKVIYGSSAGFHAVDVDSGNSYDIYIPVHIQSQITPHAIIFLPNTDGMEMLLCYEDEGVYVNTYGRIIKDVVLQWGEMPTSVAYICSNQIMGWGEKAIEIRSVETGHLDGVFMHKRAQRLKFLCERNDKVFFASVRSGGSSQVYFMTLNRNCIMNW
Chain of Mitogen-activated protein kinase kinase kinase kinase 4 (Homo sapiens) (O95819 2-1239 limits assumed): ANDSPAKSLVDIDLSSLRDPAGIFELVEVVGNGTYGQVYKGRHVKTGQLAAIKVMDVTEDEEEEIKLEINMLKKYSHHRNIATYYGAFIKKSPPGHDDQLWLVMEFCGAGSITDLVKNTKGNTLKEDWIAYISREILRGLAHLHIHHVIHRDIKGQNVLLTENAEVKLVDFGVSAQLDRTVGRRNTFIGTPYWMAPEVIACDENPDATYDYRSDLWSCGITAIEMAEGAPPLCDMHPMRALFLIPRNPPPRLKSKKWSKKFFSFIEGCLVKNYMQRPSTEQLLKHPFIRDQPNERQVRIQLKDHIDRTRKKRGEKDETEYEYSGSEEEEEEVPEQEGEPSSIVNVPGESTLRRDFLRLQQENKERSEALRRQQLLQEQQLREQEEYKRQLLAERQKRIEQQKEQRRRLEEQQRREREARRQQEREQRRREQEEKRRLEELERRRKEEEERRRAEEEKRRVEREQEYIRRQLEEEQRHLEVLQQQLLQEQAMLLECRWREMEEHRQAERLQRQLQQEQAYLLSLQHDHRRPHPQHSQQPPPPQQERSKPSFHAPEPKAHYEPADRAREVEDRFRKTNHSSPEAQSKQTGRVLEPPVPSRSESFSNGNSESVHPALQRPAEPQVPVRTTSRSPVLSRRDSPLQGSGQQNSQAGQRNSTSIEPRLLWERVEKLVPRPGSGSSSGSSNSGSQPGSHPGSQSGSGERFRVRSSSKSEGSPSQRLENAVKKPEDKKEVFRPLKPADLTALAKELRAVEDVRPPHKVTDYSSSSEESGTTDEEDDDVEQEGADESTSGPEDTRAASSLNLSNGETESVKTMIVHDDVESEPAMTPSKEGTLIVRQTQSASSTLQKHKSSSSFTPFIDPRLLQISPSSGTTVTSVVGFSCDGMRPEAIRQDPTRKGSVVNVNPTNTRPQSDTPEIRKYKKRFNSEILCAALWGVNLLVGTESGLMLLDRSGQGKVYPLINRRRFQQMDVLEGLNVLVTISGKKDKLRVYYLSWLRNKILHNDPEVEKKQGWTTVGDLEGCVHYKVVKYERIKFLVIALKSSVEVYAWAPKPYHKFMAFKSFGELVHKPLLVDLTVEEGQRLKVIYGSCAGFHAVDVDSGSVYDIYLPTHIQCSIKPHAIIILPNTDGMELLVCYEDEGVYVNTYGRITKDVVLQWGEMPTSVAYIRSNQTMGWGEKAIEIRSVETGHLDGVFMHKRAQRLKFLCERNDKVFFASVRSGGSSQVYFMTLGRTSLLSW
Chain of RAC-alpha serine/threonine-protein kinase (Homo sapiens) (P31749 whole entry, the tested form may be a part): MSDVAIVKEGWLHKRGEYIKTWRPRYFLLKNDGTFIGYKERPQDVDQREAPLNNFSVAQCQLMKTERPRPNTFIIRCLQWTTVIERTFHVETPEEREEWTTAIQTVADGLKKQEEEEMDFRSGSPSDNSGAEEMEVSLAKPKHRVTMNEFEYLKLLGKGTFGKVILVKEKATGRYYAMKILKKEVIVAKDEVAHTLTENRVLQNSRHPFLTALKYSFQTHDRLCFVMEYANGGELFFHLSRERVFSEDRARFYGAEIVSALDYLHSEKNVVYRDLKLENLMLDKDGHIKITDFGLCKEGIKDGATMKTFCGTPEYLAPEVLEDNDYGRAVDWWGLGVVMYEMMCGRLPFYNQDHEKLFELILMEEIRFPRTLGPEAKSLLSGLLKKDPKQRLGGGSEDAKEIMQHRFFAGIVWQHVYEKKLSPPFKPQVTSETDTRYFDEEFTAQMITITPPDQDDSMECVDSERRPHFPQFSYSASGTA
Chain of Serine/threonine-protein kinase PAK 4 (Homo sapiens) (O96013 whole entry, looked up, the tested form may be a part): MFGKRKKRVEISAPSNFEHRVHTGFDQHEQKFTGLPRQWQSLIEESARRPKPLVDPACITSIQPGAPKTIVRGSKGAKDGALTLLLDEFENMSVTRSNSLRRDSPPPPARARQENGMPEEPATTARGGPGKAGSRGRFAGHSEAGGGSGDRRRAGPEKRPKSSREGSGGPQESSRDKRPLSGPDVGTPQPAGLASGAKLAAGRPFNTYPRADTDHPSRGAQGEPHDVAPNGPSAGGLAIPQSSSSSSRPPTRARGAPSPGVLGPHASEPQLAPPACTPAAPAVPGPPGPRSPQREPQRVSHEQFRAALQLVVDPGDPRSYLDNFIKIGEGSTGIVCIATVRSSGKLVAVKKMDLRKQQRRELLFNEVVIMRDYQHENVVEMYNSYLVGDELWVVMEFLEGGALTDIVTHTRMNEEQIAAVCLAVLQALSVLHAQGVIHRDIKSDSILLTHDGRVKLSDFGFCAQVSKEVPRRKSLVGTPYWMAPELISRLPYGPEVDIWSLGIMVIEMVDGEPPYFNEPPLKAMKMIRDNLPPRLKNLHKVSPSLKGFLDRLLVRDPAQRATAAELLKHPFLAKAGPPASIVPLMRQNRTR

## CCOc1nc2ccc(C#C[C@](C)(O)c3ncc(C)o3)cc2n1-c1ccnc(N)n1
[1]
  Ki: 634 nM
[2]
  Ki: 62 nM

## Cc1cc([C@](C)(O)C#Cc2ccc3c(c2)-c2nc(C(N)=O)cn2CCO3)no1
[1]
  Ki: 3.1 nM
[2]
  Ki: 4.9 nM

## Cc1cc([C@@](C)(O)C#Cc2ccc3c(c2)-c2nc(C(N)=O)c(C4CC4)n2CCO3)no1
[3]
  inhibition: 20%
[4]
  inhibition: 1%
[5]
  inhibition: 4%
[6]
  inhibition: 7%
[1]
  Ki: ≥ 1250 nM
[7]
  logD: 2
[8]
  inhibition: > 30%
[2]
  Ki: < 0.2 nM
[9]
  solubility kinetic: 124 µM (≈ 51.9 µg/mL)
[10]
  inhibition: 21%

## Cc1cnc([C@@](C)(O)C#Cc2ccc3c(c2)-c2nc(C(N)=O)cn2C2CC3C2)o1
[2]
  Ki: 4.2 nM

## Cc1cnc(C(C)(C)C#Cc2ccc3c(c2)-c2nc(C(N)=O)c(C4CC4)n2C2CC3C2)o1
[1]
  Ki: > 1250 nM
[7]
  logD: 4.4
[2]
  Ki: < 0.2 nM
[9]
  solubility kinetic: 35 µM (≈ 14.9 µg/mL)
[11]
  inhibition: > 40%

## Cc1cc([C@](C)(O)C#Cc2cc3c(cc2F)C2CC(C2)n2cc(C(N)=O)nc2-3)no1
[1]
  Ki: 1 nM
[2]
  Ki: 5.9 nM

## CNC(=O)c1c(C(N)=O)nc2n1C1CC(C1)c1ccc(C#CC(C)(C)c3ncc(C)o3)cc1-2
[3]
  inhibition: 51%
[1]
  Ki: > 1250 nM
[7]
  logD: 3.7
[8]
  inhibition: Active
[2]
  Ki: < 0.2 nM
[9]
  solubility kinetic: 13 µM (≈ 5.77 µg/mL)
[10]
  inhibition: 57%
[11]
  inhibition: 45%

## NC(=O)c1cn2c(n1)-c1cc(C#CC3(O)CCCC3)ccc1C1CC2C1
[1]
  Ki: 10 nM
[2]
  Ki: 25 nM

## Cc1cc([C@@](C)(O)C#Cc2ccc3c(c2)-c2nc(C(N)=O)cn2C2CC3C2)no1
[1]
  Ki: 582 nM
[2]
  Ki: 65 nM

## Cc1cc([C@@](C)(O)C#Cc2ccc3c(c2)-c2nc(C(N)=O)cn2CCO3)no1
[1]
  Ki: > 250 nM
[2]
  Ki: 14 nM

## CCOc1nc2ccc(C#C[C@@](C)(O)c3ncc(C)o3)cc2n1-c1ccnc(N)n1
[1]
  Ki: 0.16 nM
[2]
  Ki: 3.6 nM

## Cc1cc([C@](C)(O)C#Cc2cc3c(cc2F)C2CC(C2)n2c-3nc(C(N)=O)c2C2CC2)no1
[7]
  logD: 3.7
[2]
  Ki: < 0.2 nM

## Cc1cc([C@](C)(O)C#Cc2ccc3c(c2)-c2nc(C(N)=O)cn2C2CC3C2)no1
[1]
  Ki: 0.8 nM
[2]
  Ki: 0.9 nM

## CNC(=O)c1c(C(N)=O)nc2n1C1CC(C1)c1cc(F)c(C#C[C@@](C)(O)c3cc(C)on3)cc1-2
[1]
  Ki: 14 nM

## NC(=O)c1cn2c(n1)-c1cc(C#CC3CCCC3)ccc1C1CC2C1
[1]
  Ki: > 1250 nM
[2]
  Ki: 44 nM

## Cc1cnc([C@](C)(O)C#Cc2ccc3c(c2)-c2nc(C(N)=O)cn2C2CC3C2)o1
[2]
  Ki: < 0.2 nM
